{
  "source": "patent EP1180991B1",
  "about": "“GAMBOGIC ACID DERIVATIVES AS ACTIVATORS OF CASPASES AND INDUCERS OF APOPTOSIS” (Cytovia, Inc., priority 1999, dated 2000)",
  "key": {"HL-60 [1]": {"test_system": "HL-60", "assay": "Caspase cascade activation assay (Example 90)", "assay_type": "cell-based, human", "details": "HL-60, 24 h incubation", "description": "(§1) Human breast cancer cell lines T-47D and ZR-75-1, human prostate cancer cell line PC-3, human leukemia cancer cell line HL-60 and human non-transformed fibroblast cell line MRC-5 cells were grown according to media component mixtures designated by The American Type Culture Collection + 10% FCS (Life Technologies, Inc.), in a 5% CO2 -95% humidity incubator at 37° C. T-47D, ZR-75-1 and PC-3 cells were maintained at a cell density between 30 and 80% confluency and for HL-60 at a cell density of 0.1 to 0.6 x 10^6 cells/ml. Cells were harvested at 600xg and resuspended at 0.65 x 10^6 cells/ml into appropriate media + 10% FCS. […] The samples were mixed by agitation and incubated at room temperature.\n(§2) The EC50 (nM) was determined by a sigmoidal dose-response calculation (Prism 2.0, GraphPad Software Inc.). Caspase Activity and Potency"}, "MRC-5": {"test_system": "MRC-5", "assay": "Caspase cascade activation assay (Example 90)", "assay_type": "cell-based, human", "details": "MRC-5 non-transformed fibroblasts, 24 h incubation", "description": "as §1, §2"}, "PC-3 [2]": {"test_system": "PC-3", "assay": "Caspase cascade activation assay (Example 90)", "assay_type": "cell-based, human", "details": "PC-3, 24 h incubation", "description": "as §1, §2"}, "T-47D [3]": {"test_system": "T-47D", "assay": "Caspase cascade activation assay (Example 90)", "assay_type": "cell-based, human", "details": "T-47D, 24 h incubation", "description": "as §1, §2"}, "ZR-75-1 [4]": {"test_system": "ZR-75-1", "assay": "Caspase cascade activation assay (Example 90)", "assay_type": "cell-based, human", "details": "ZR-75-1, 24 h incubation", "description": "as §1, §2"}, "A-549": {"test_system": "A-549", "assay": "Inhibition of cell proliferation (GI50) and cell death (LC50), CellTiter 96 (Example 91)", "assay_type": "cell-based", "details": "Homo sapiens, A549, A-549, 48 h", "description": "(§3) T-47D, ZR-75-1, PC-3, human prostate cancer cell line DU-145, human non-small cell lung cancer cell line A-549, human small cell lung cancer cell line SHP-77, HL-60 and MRC-5 cells were grown and harvested as in Example 90. […] The samples were mixed by agitation and incubated at 37° C for 2-4 h in a 5% CO2-95% humidity incubator. […] This determines the possible background absorbance of the test compounds. No absorbance for gambogic acid or its analogs or derivatives was found at 490 nm. After the 2-4 h incubation, the samples were read for absorbance as above (ATest).\n(§4) The samples were mixed by agitation and incubated at 37° C for 2-4 h in a 5% CO2-95% humidity incubator. Absorbance was read as above, (AT=0) defining absorbance for initial cell number used as baseline in GI50 determinations and (Amin) defining absorbance for media alone used as baseline in LC50 determinations.\n(§5) GI50 (dose for50%inhibition of cell proliferation) 50 = 100 x [(ATest-AT = 0)/(Amax-AT = 0)] [formula] LC50 (dose for50%cell death) 50 = 100 x [(ATest-Amin)/(AT = 0-Amin)] [formula]"}, "DU-145": {"test_system": "DU-145", "assay": "Inhibition of cell proliferation (GI50) and cell death (LC50), CellTiter 96 (Example 91)", "assay_type": "cell-based", "details": "Homo sapiens, DU-145, 48 h", "description": "as §3, §4, §5"}, "HL-60 [5]": {"test_system": "HL-60", "assay": "Inhibition of cell proliferation (GI50) and cell death (LC50), CellTiter 96 (Example 91)", "assay_type": "cell-based", "details": "Homo sapiens, HL-60, 48 h", "description": "as §3, §4, §5"}, "PC-3 [6]": {"test_system": "PC-3", "assay": "Inhibition of cell proliferation (GI50) and cell death (LC50), CellTiter 96 (Example 91)", "assay_type": "cell-based", "details": "Homo sapiens, PC-3, 48 h", "description": "as §3, §4, §5"}, "SHP-77": {"test_system": "SHP-77", "assay": "Inhibition of cell proliferation (GI50) and cell death (LC50), CellTiter 96 (Example 91)", "assay_type": "cell-based", "details": "Homo sapiens, SHP77, SHP-77, 48 h", "description": "as §3, §4, §5"}, "T-47D [7]": {"test_system": "T-47D", "assay": "Inhibition of cell proliferation (GI50) and cell death (LC50), CellTiter 96 (Example 91)", "assay_type": "cell-based", "details": "Homo sapiens, T47D, T-47D, 48 h", "description": "as §3, §4, §5"}, "ZR-75-1 [8]": {"test_system": "ZR-75-1", "assay": "Inhibition of cell proliferation (GI50) and cell death (LC50), CellTiter 96 (Example 91)", "assay_type": "cell-based", "details": "Homo sapiens, ZR-75-1, 48 h", "description": "as §3, §4, §5"}, "T47D cells [9]": {"test_system": "T47D cells", "assay": "Morphological change of cells, phase contrast (Example 93)", "assay_type": "cell-based, human", "details": "2.5 µM", "description": "In addition, apoptotic adherent cells in culture lose their ability to remain attached to the culture dish. The ability of gambogic acid to trigger these morphological changes in T47D cells was investigated.\n60 mm culture dishes were seeded with 750,000. T47D cells and the cultures were incubated under normal growth conditions (complete medium with 10% FBS) for 24 h. The cells were then treated with 2.5 µM of gambogic acid and further incubated under normal growth conditions for 2 or 6 h. Morphological changes were documented by photographing the cells under phase contrast illumination."}, "T47D cells [10]": {"test_system": "T47D cells", "assay": "Nuclear fragmentation, Syto16 DNA stain (Example 94)", "assay_type": "cell-based, human", "details": "10 µM, 24 h (Fig. 2B)", "description": "T47D cells were grown and plated as described in Example 90. The cells were treated with 10 µM of gambogic acid and the plate was incubated for up to 24 h at 37°C in a 5% CO2-95% humidity incubator. At 24 h, the cells were incubated with a live cell nucleic acid stain, Syto16 (Molecular Probes) which stains DNA. After 2 washes with PBS, cells were examined under a fluorescence microscope. […] Nuclear fragmentation is a clear indicator of cellular apoptosis."}, "HEL cells": {"test_system": "HEL cells", "details": "Asano et al. 1996; cited from earlier work"}, "KB-V1": {"test_system": "KB-V1", "details": "Lin et al. 1993; cited from earlier work"}, "[11]": {"details": "0.16 to 10 µM final, net RFU ratio to control"}, "[12]": {"details": "Homo sapiens, caspase activation, read-out: EC50"}, "[13]": {"details": "dose for 50% cell death, read-out: LC50 (the source's name)"}, "[14]": {"details": "dose for 50% inhibition of cell proliferation, read-out: GI50"}},
  "data": [
    {"smiles": "CC(C)=CCC[C@]1(C)C=Cc2c(O)c3c(c(CC=C(C)C)c2O1)O[C@]12C(=C[C@@H]4C[C@H]1C(C)(C)O[C@@]2(C/C=C(/C)C(=O)O)C4=O)C3=O", "note": "[Example 1, Gambogic Acid]", "values": [
      {"measurement": "caspase activity (Ratio)", "setting": "HL-60 [1]; [11]", "result": 6.3},
      {"measurement": "EC50", "setting": "HL-60 [1]; [12]", "result": 400, "unit": "nM"},
      {"measurement": "EC50", "setting": "MRC-5; Homo sapiens, MRC5, caspase activation, read-out: EC50", "result": 1410, "unit": "nM"},
      {"measurement": "caspase activity (Ratio)", "setting": "MRC-5; [11]", "result": 17.8},
      {"measurement": "EC50", "setting": "PC-3 [2]; [12]", "result": 1500, "unit": "nM"},
      {"measurement": "caspase activity (Ratio)", "setting": "PC-3 [2]; [11]", "result": 2.1},
      {"measurement": "EC50", "setting": "T-47D [3]; Homo sapiens, T47D, caspase activation, read-out: EC50", "result": 560, "unit": "nM"},
      {"measurement": "caspase activity (Ratio)", "setting": "T-47D [3]; [11]", "result": 13.6},
      {"measurement": "EC50", "setting": "ZR-75-1 [4]; [12]", "result": 1400, "unit": "nM"},
      {"measurement": "caspase activity (Ratio)", "setting": "ZR-75-1 [4]; [11]", "result": 11.9},
      {"measurement": "CC50", "setting": "A-549; [13]", "result": 5000, "unit": "nM"},
      {"measurement": "GI50", "setting": "A-549; [14]", "result": 800, "unit": "nM"},
      {"measurement": "CC50", "setting": "DU-145; [13]", "result": 800, "unit": "nM"},
      {"measurement": "GI50", "setting": "DU-145; [14]", "result": 500, "unit": "nM"},
      {"measurement": "CC50", "setting": "HL-60 [5]; [13]", "result": 700, "unit": "nM"},
      {"measurement": "GI50", "setting": "HL-60 [5]; [14]", "result": 500, "unit": "nM"},
      {"measurement": "CC50", "setting": "PC-3 [6]; [13]", "result": 700, "unit": "nM"},
      {"measurement": "GI50", "setting": "PC-3 [6]; [14]", "result": 500, "unit": "nM"},
      {"measurement": "CC50", "setting": "SHP-77; [13]", "result": 500, "unit": "nM"},
      {"measurement": "GI50", "setting": "SHP-77; [14]", "result": 500, "unit": "nM"},
      {"measurement": "CC50", "setting": "T-47D [7]; [13]", "result": 450, "unit": "nM"},
      {"measurement": "GI50", "setting": "T-47D [7]; [14]", "result": 65, "unit": "nM"},
      {"measurement": "CC50", "setting": "ZR-75-1 [8]; [13]", "result": 500, "unit": "nM"},
      {"measurement": "GI50", "setting": "ZR-75-1 [8]; [14]", "result": 400, "unit": "nM"},
      {"measurement": "apoptotic morphological changes", "setting": "T47D cells [9]; 2 h (Fig. 1B)", "result": "many of the cells have taken on a rounded, phase-bright morphology"},
      {"measurement": "apoptotic morphological changes", "setting": "T47D cells [9]; 6 h (Fig. 1C)", "result": "most of the cells in the culture are rounded up and are beginning to detach from the dish"},
      {"measurement": "nuclear fragmentation", "setting": "T47D cells [10]", "result": "condensed and fragmented nuclei in a large population of the cells"},
      {"measurement": "cytotoxicity", "setting": "HEL cells", "result": "cytotoxic"},
      {"measurement": "cytotoxicity", "setting": "KB-V1", "result": "cytotoxic"}
    ]}
  ]
}
